The test system of this test is P1534 leukemia ip, CD2F1 mice, survival T/C. Nature of the test: NCI In Vivo Anticancer Drug Screen. Data for tumor model P1534 Leukemia (intraperitoneal) in CD2F1 (CDF1) mice. Conditions: endpoint: mean survival time, higher = longer survival. The procedure: The antitumor activity of compounds was measured in mice bearing transplantable tumors. Survival or tumor size were measured and the results are expressed as the measurement made in the treated group (T) divided by the measurement made in the vehicle treated control group (C). The tumor model used in this assay is P1534 Leukemia (intraperitoneal) in CD2F1 (CDF1) mice

Where [1] appears, read: dose: 50.0 mg/kg/injection, schedule: Q01DX010 (ip), vehicle: saline.
The mark [2] stands for this setting: dose: 100.0 mg/kg/injection, schedule: Q01DX010 (ip), vehicle: saline.
[3] abbreviates: dose: 200.0 mg/kg/injection, schedule: Q01DX010 (ip), vehicle: saline.
Setting [4] is: dose: 400.0 mg/kg/injection, schedule: Q01DX010 (ip), vehicle: saline.
[5] abbreviates: dose: 2.5 mg/kg/injection, schedule: Q01DX010 (ip), vehicle: saline.
The mark [6] stands for this setting: dose: 10.0 mg/kg/injection, schedule: Q01DX010 (ip), vehicle: saline.
[7] abbreviates: dose: 25.0 mg/kg/injection, schedule: Q01DX010 (ip), vehicle: saline.
[8] abbreviates: dose: 15.0 mg/kg/injection, schedule: Q01DX010 (ip), vehicle: saline.
The mark [9] stands for this setting: dose: 30.0 mg/kg/injection, schedule: Q01DX010 (ip), vehicle: saline.
Where [10] appears, read: dose: 60.0 mg/kg/injection, schedule: Q01DX010 (ip), vehicle: saline.
Setting [11] is: dose: 100.0 mg/kg/injection, schedule: Q01DX010 (ip), vehicle: water.
Setting [12] is: dose: 200.0 mg/kg/injection, schedule: Q01DX010 (ip), vehicle: water.
[13] abbreviates: dose: 12.5 mg/kg/injection, schedule: Q01DX010 (ip), vehicle: saline.
[14] abbreviates: dose: 5.0 mg/kg/injection, schedule: Q01DX010 (ip), vehicle: saline.
Setting [15] is: dose: 20.0 mg/kg/injection, schedule: Q01DX010 (ip), vehicle: saline.
Setting [16] is: dose: 40.0 mg/kg/injection, schedule: Q01DX010 (ip), vehicle: saline.
The mark [17] stands for this setting: dose: 8.0 mg/kg/injection, schedule: Q01DX010 (ip), vehicle: saline.
[18] abbreviates: dose: 62.5 mg/kg/injection, schedule: Q01DX010 (ip), vehicle: saline.
[19] abbreviates: dose: 125.0 mg/kg/injection, schedule: Q01DX010 (ip), vehicle: saline.
[20] abbreviates: dose: 1.25 mg/kg/injection, schedule: Q01DX010 (ip), vehicle: saline.
[21] abbreviates: dose: 4.0 mg/kg/injection, schedule: Q01DX010 (ip), vehicle: saline.
Setting [22] is: dose: 80.0 mg/kg/injection, schedule: Q01DX010 (ip), vehicle: saline.
Setting [23] is: dose: 7.5 mg/kg/injection, schedule: Q01DX010 (ip), vehicle: saline.
Setting [24] is: dose: 250.0 mg/kg/injection, schedule: Q01DX010 (ip), vehicle: saline.
Setting [25] is: dose: 500.0 mg/kg/injection, schedule: Q01DX010 (ip), vehicle: saline.

Drawing on PubChem BioAssay AID316 (DTP/NCI, 2004), this text covers T/C for 29 compounds.

“And” between values parts separate entries of the source, which are not always exact repeats. Identical values can stand only once. Inconclusive results and toxic doses are left out.

Consider `CCC(=O)O[C@H]1CC[C@H]2[C@@H]3CCC4=CC(=O)CC[C@]4(C)[C@H]3CC[C@]12C`, for which the T/C was 96 % of control (dose: 62.5 mg/kg/injection, schedule: Q01DX010 (sc), vehicle: steriod suspending solution); 100 % of control (dose: 125.0 mg/kg/injection, schedule: Q01DX010 (sc), vehicle: steriod suspending solution); 100 % of control (dose: 250.0 mg/kg/injection, schedule: Q01DX010 (sc), vehicle: steriod suspending solution); 100 % of control (dose: 500.0 mg/kg/injection, schedule: Q01DX010 (sc), vehicle: steriod suspending solution).

For `COc1ccc2c(c1OC)CN1CCc3cc4c(cc3C1C2)OCO4` (centres undefined), the T/C was 107 % of control under setting [1], 92 % of control under setting [2], 88 % of control under setting [3] and 100 % of control under setting [4].

For `O=C(NCCCC(NC(=O)OCc1ccccc1)C(=O)NCCCNCCCCNCCCNC(=O)C(CCCNC(=O)OCc1ccccc1)NC(=O)OCc1ccccc1)OCc1ccccc1` (centres undefined), the T/C by setting is: under setting [5], 100 % of control; under setting [6], 100 % of control.

As to `c1ccc2ncccc2c1`, the T/C reads like this: under setting [7], 100 % of control; under setting [1], 100 % of control; under setting [2], 96 % of control.

As for `C[N+](C)(C)c1ncnc2nc[nH]c12`, the T/C under setting [8] is 107 % of control, the T/C under setting [9] is 110 % of control and the T/C under setting [10] is 114 % of control.

In the case of `NC(=O)c1cn[nH]c1N`, the T/C under setting [11] is 100 % of control and the T/C under setting [12] was 93 % of control.

For `OCCN1CCC(CCCC2CCNCC2)CC1`, the T/C is 96 % of control under setting [13], 93 % of control under setting [7] and 89 % of control under setting [1].

On to `OCCOCCN1CCN(CCCN2c3ccccc3Sc3ccc(C(F)(F)F)cc32)CC1`, for which the T/C by setting is: under setting [14], 100 % of control; under setting [6], 111 % of control; under setting [15], 123 % of control; under setting [16], 119 % of control.

Consider `CN(C)c1ccc(/C=C\c2ccnc3ccccc23)cc1`, for which the T/C reads like this: under setting [17], 115 % of control; (dose: 12.0 mg/kg/injection, schedule: Q01DX010 (ip), vehicle: saline) 115 % of control; (dose: 18.0 mg/kg/injection, schedule: Q01DX010 (ip), vehicle: saline) 103 % of control and 100 % of control; (dose: 27.0 mg/kg/injection, schedule: Q01DX010 (ip), vehicle: saline) 123 % of control.

Consider `CC(=O)c1ccc[nH]1`, for which the T/C was 100 % of control under setting [18] and 96 % of control under setting [19].

With `CC(CCc1ccc(OC(=O)c2ccccc2)cc1)OC(=O)c1ccccc1` (centres undefined), the T/C was 96 % of control under setting [1], 89 % of control under setting [2], 86 % of control under setting [3] and 89 % of control under setting [4].

Regarding `COc1ccc2c(c1O)-c1c(OC)c(OC)cc3c1[C@H](C2)[N+](C)(C)CC3`, the T/C under setting [20] is 96 % of control, the T/C under setting [5] is 103 % of control, the T/C under setting [14] was 103 % of control and the T/C under setting [6] is 100 % of control.

Turning to `CN1CC[C@]23c4c5ccc(O)c4O[C@H]2C(=O)CC[C@H]3[C@H]1C5`, the T/C is, setting by setting: under setting [21], 100 % of control; under setting [17], 100 % of control; (dose: 16.0 mg/kg/injection, schedule: Q01DX010 (ip), vehicle: saline) 107 % of control and 100 % of control; (dose: 32.0 mg/kg/injection, schedule: Q01DX010 (ip), vehicle: saline) 103 % of control.

Consider `COC(=O)C1=COC(C)C2CN3CCc4c([nH]c5ccccc45)C3CC12` (centres undefined), for which the T/C by setting is: under setting [15], 96 % of control; under setting [16], 93 % of control; under setting [22], 96 % of control.

For `Nc1nc(F)nc2c1ncn2C1OC(CO)C(O)C1O` (centres undefined), the T/C reads like this: (dose: 1.0 mg/kg/injection, schedule: Q01DX010 (ip), vehicle: saline) 110 % of control and 100 % of control; (dose: 2.0 mg/kg/injection, schedule: Q01DX010 (ip), vehicle: saline) 103 % of control; under setting [21], 96 % of control; under setting [17], 92 % of control.

For `Nc1nncs1`, the T/C under setting [23] is 114 % of control.

Take `CN(C)c1ccc(Nc2c3ccccc3nc3ccccc23)cc1`: the T/C by setting is: (dose: 36.0 mg/kg/injection, schedule: Q01DX010 (ip), vehicle: saline) 121 % of control; under setting [22], 92 % of control.

For `COc1ccc(C(=O)C[C@H]2CCC[C@@H](CC(=O)c3ccc(OC)cc3)N2C)cc1`, the T/C is, setting by setting: under setting [6], 107 % of control; under setting [15], 100 % of control; under setting [16], 100 % of control; under setting [22], 107 % of control.

For `O=c1cn[nH]c(=O)[nH]1`, the T/C was 94 % of control and 100 % of control under setting [18]; 100 % of control under setting [19]; 94 % of control and 100 % of control under setting [24]; 105 % of control and 111 % of control under setting [25].

In the case of `COc1ccc2cc3[n+](cc2c1O)CCc1cc2c(cc1-3)OCO2`, the T/C is 111 % of control under setting [13], 123 % of control under setting [7] and 115 % of control under setting [1].

On to `O=c1cccc2n1CC1CNC[C@H]2C1`, for which the T/C is, setting by setting: (dose: 0.78 mg/kg/injection, schedule: Q01DX010 (ip), vehicle: saline) 100 % of control; (dose: 1.56 mg/kg/injection, schedule: Q01DX010 (ip), vehicle: saline) 100 % of control; (dose: 3.13 mg/kg/injection, schedule: Q01DX010 (ip), vehicle: saline) 103 % of control; (dose: 6.25 mg/kg/injection, schedule: Q01DX010 (ip), vehicle: saline) 100 % of control.

For the compound `C/C=C1/CN[C@H]2Cc3c([nH]c4ccccc34)[C@@H](O)C[C@@H]1C2C(=O)OC` (some centres undefined), the T/C runs as follows: under setting [23], 93 % of control; under setting [8], 93 % of control; under setting [9], 96 % of control; under setting [10], 93 % of control.

Take `CNCC(O)(C(=O)O)C(=O)O`: the T/C was 103 % of control under setting [1] and 96 % of control under setting [2].

Regarding `CNC(C)C(O)c1ccccc1` (centres undefined), the T/C runs as follows: (dose: 37.5 mg/kg/injection, schedule: Q01DX010 (ip), vehicle: saline) 96 % of control; (dose: 75.0 mg/kg/injection, schedule: Q01DX010 (ip), vehicle: saline) 92 % of control.

`CCC(CCC(C)C1CCC2C3CC=C4CC(O)CCC4(C)C3CCC12C)C(C)C` (centres undefined) (tested in a mixture with another compound): the T/C was 102 % of control (dose: 12.0 mg/kg/injection, schedule: Q01DX010 (ip), vehicle: water); 109 % of control (dose: 25.0 mg/kg/injection, schedule: Q01DX010 (ip), vehicle: water); 87 % of control (dose: 25.0 mg/kg/injection, schedule: Q#A X020 (ip), vehicle: other); 93 % of control (dose: 50.0 mg/kg/injection, schedule: Q01DX010 (ip), vehicle: water).

Turning to `O=C(NCCCCC(NC(=O)OCc1ccccc1)C(=O)NCCCCCCNCCCCCCNC(=O)C(CCCCNC(=O)OCc1ccccc1)NC(=O)OCc1ccccc1)OCc1ccccc1` (centres undefined), the T/C under setting [13] was 107 % of control, the T/C under setting [7] is 114 % of control and the T/C under setting [1] is 114 % of control.

As for `O=C(O)c1[nH]c(=O)[nH]c(=O)c1F`, the T/C under setting [20] was 106 % of control, the T/C under setting [14] is 236 % of control and the T/C under setting [6] was 106 % of control.

Consider `OCn1cccn1`, for which the T/C runs as follows: under setting [11], 124 % of control; (dose: 125.0 mg/kg/injection, schedule: Q01DX010 (ip), vehicle: water) 121 % of control; (dose: 150.0 mg/kg/injection, schedule: Q01DX010 (ip), vehicle: water) 118 % of control; under setting [12], 86 % of control.

Consider `CCN(CC)C(=S)S`, for which the T/C reads like this: under setting [19], 100 % of control; under setting [24], 100 % of control; under setting [25], 103 % of control; (dose: 1000.0 mg/kg/injection, schedule: Q01DX010 (ip), vehicle: saline) 107 % of control.
